According to PMC6936348, “Reactivation of Epstein–Barr virus by a dual-responsive fluorescent EBNA1-targeting agent with Zn^2+-chelating function” (Proceedings of the National Academy of Sciences of the …, 2019):

Columns and labels:
[1] = Fluorescence response toward Zn2+; format: binding; conditions: 2 µM probe, excitation 337 nm
[2] = system: EBV-positive NPC43, C666-1 and Raji cells; assay: MTT cytotoxicity, EBV-positive cell panel; format: cell-based; conditions: 1 to 20 µM, 5 d
[3] = system: EBV-positive C666-1 and NPC43 cells; assay: Two-photon imaging, subcellular localization in EBV-positive cells; format: cell-based; conditions: 10 µM, 3 h, two-photon λex 700 nm
[4] = system: Rta, BMRF1, gp350/220 in NPC43 cells; assay: Western blot of lytic proteins in NPC43; format: cell-based, Epstein–Barr virus; conditions: 10 µM, 7 d
Text: Fig. 5. EBV lytic induction analysis of EBV-positive tumors and cells in response to the EBNA1 probes. (A) IHC analysis of lytic proteins Zta, BMRF1, and VCA-p18 in the transplanted C666-1–derived tumor tissues as described in Fig. 4 E–G. Representative results are shown. […] Insets (in the red boxes) are the enlarged images to indicate the cellular localization of the 3 proteins. Negative control staining images are included for the mouse antibodies (mAb) against Zta and BMRF1 and for the rat antibody (rAb) against VCA-p18. Magnification, 400×. […] TPA/NaB (20 ng/mL TPA, 3 mM NaB) serves as a positive control of lytic induction. The presence of these 4 lytic proteins is indicated by red signals. The nuclei were stained with DAPI. […] Acetylated histone H3 (Ac-Histone H3) was also detected. β-actin serves as the loading control. […] The gene expression was analyzed by qRT-PCR. The fold change of relative gene expression after each treatment was compared with the solvent control (DMSO). Data are expressed as the means ± CI.
Western blot analysis of Zta, Rta, BMRF1, and gp350/220 was performed as reported ([41]). The Rta antibody was supplied from Argene (Verniolle) and the β-actin antibody for loading control was supplied from Cell Signaling Technology. Antibodies against Zta, BMRF1, gp350/220, Dicer1, and PML were the ones used for IF staining. A 1:400 dilution of the primary antibodies was used.

[5] = system: infectious EBV particles from HONE-1-EBV cells; assay: EBV infection assay (Raji cell assay, virions from HONE-1-EBV); format: cell-based, Epstein–Barr virus; conditions: 10 µM, 4 d, triplicate, P = 0.009 (ZRL5P4), P = 0.06 (ZRL5P2)
HeLa xenograft = conditions: 4 μg/injection every three days, 19 days, vs control
C666-1 xenograft = assay: C666-1 xenograft, intratumoral injection; conditions: 4 µg per injection twice weekly, 18 d, n = 5
[6] = system: EBNA1 monomer homodimerization; conditions: peptide P4; cited from earlier work
Text: (§1) Epstein–Barr nuclear antigen 1 (EBNA1) is the only viral protein expressed in nearly all forms of EBV latency and its associated cancers which plays a vital role in the maintenance of viral genome ([3]). EBNA1 is also important for the transcriptional activation of some other EBV latency genes ([4]). Homodimerization of EBNA1 is known to be critical for EBNA1–DNA binding and the subsequent functions of oriP (latent origin of replication), including viral DNA replication and segregation, maintenance of the EBV episomal genome, and transcriptional activation ([5]). Thus, EBNA1 not only serves as ...

EBV-infected cells = conditions: peptide P4; cited from earlier work
Text: as §1

[7] = target: the molecule itself; assay: self-association assay read by SDS-PAGE and anti-His Western blot

## YFMVF [ZRL5P2]
[1]; 2 equiv. Zn2+, CH3CN/0.05 M Hepes pH 7.4, 50:50
  Emission change upon addition of Zn2+: slightly blue-shifted emission
[1]; CH3CN/0.05 M Hepes pH 7.4, 50:50, absence of Zn2+
  Maximum emission wavelength, without Zn2+: 448 nm
[1]; CH3CN/0.05 M Hepes pH 7.4, 50:50, presence of Zn2+
  Maximum emission wavelength, with Zn2+: 445 nm
[2]
  Growth-inhibitory effect, comparison: the least efficient one
[3]
  Subcellular localization: only found in the cytoplasm
[4]
  Rta and BMRF1 expression: much weaker than those of ZRL5P4
[5]
  Virion production versus DMSO control: 2.6 fold
HeLa xenograft
  Body weights: did not cause any significant changes in body weights
C666-1 xenograft
  Tumor growth: did not significantly affect tumor growth

## CAhxYFMVFGGRrRK [P4]
[6]
  EBNA1 homodimerization: able to interfere with the homodimerization of the EBNA1 monomer
EBV-infected cells
  EBV-infected cell growth: suppress EBV-infected cell growth

B1: Full-length EBNA1 (residues 1 to 641) with an N-terminal His tag (ab138345; Abcam) (natural protein)
chain: MSDEGPGTGPGNGLGEKGDTSGPEGSGGSGPQRRGGDNHGRGRGRGRGRGGGRPGAPGGSGSGPRHRDGVRRPQKRPSCIGCKGTHGGTGAGAGAGGAGAGGAGAGGGAGAGGGAGGAGGAGGAGAGGGAGAGGGAGGAGGAGAGGGAGAGGGAGGAGAGGGAGGAGGAGAGGGAGAGGGAGGAGAGGGAGGAGGAGAGGGAGAGGAGGAGGAGAGGAGAGGGAGGAGGAGAGGAGAGGAGAGGAGAGGAGGAGAGGAGGAGAGGAGGAGAGGGAGGAGAGGGAGGAGAGGAGGAGAGGAGGAGAGGAGGAGAGGGAGAGGAGAGGGGRGRGGSGGRGRGGSGGRGRGGSGGRRGRGRERARGGSRERARGRGRGRGEKRPRSPSSQSSSSGSPPRRPPPGRRPFFHPVGEADYFEYHQEGGPDGEPDVPPGAIEQGPADDPGEGPSTGPRGQGDGGRRKKGGWFGKHRGQGGSNPKFENIAEGLRALLARSHVERTTDEGTWVAGVFVYGGSKTSLYNLRRGTALAIPQCRLTPLSRLPFGMAPGPGPQPGPLRESIVCYFMVFLQTHIFAEVLKDAIKDLVMTKPAPTCNIRVTVCSFDDGVDLPPWFPPMVEGAAAEGDDGDDGDEGGDGDEGEEGQE
notes: source: bought: Abcam (ab138345); not shown: His tag, N-terminal, kept
[7]
  stoichiometry N: 2
